The nature of data set [1]: in vitro. As to conditions: human, microsomes.
Data set [2] concerns Leishmania infantum MHOM/MA(BE)/67/ITMAP263 intracellular amastigotes. Description: microbe, parasite or virus in culture. As to conditions: Macrophage, in Mus musculus.
For data set [3], the system named is primary peritoneal mouse macrophages (PMM). As to the kind of experiment: cells. As to conditions: Macrophage.
Data set [4] in a line: in vitro. To be noted: mouse, microsomes.
A further data set can be described thus: physchem. As to conditions: HPLC, Ascentis Express RP Amide column.
For data set [5], the system named is Trypanosoma cruzi, Tulahuen CL2, beta-galactosidase strain. As to the kind of experiment: microbe, parasite or virus in culture. As to conditions: MRC5, read-out: T. cruzi Tulahuen C4 (LacZ) IC50.
A short description of data set [6]: in vitro. As to conditions: human.
The mark [7] stands for this setting: pH 7.4, Microsome Clint Human, intrinsic in vitro clearance, liver microsomes.
Where [8] appears, read: read-out: L. inf. pIC50, intracellular amastigotes in PMM (converted), geometric mean of a minimum of two experiments ± standard error.
The mark [9] stands for this setting: read-out: PMM pIC50 (converted).
[10] abbreviates: pH 7.4, Microsome Clint Mouse, intrinsic in vitro clearance, liver microsomes.
The mark [11] stands for this setting: pH 7.4, elog D, HPLC measured log D, pH 7.4.
Where [12] appears, read: pH 7.4, Microsome Clint,u Human, Table 2, intrinsic in vitro clearance, liver microsomes.
[13] abbreviates: read-out: L. Inf. pIC50, from L. infantum intracellular amastigote IC50 (converted).
Where [14] appears, read: read-out: L. infantum MHOM/MA(BE)/67/ITMAP263 intracellular amastigotes IC50, intracellular amastigotes.

Experimental findings from PMC8126888 (RSC Medicinal Chemistry, 2020) are described below.

Where two headings read alike, the source gives them in different places.

For the compound `COc1ccc(Cl)cc1S(=O)(=O)N(Cc1ccccc1)Cc1ccccc1` [Compound 19], the microsomal CLint at 0.5 μM amounted to 407 µL/min/mg in the data set “in vitro [1]” (setting [7]) and 1350 µL/min/mg in the data set “in vitro [4]” (setting [10]). Moreover, the IC50 in data set [2] (setting [8]) is 1380 nM; in data set [3] (setting [9]), greater than 64.6 µM.

As to `COc1ccc(F)cc1S(=O)(=O)N(Cc1ccccc1)Cc1ccccc1` [Compound 18], the microsomal CLint at 0.5 μM in “in vitro [1]” (setting [7]) came to 955 µL/min/mg. For the same compound, the IC50 in data set [2] (setting [8]) is 1380 nM; in data set [3] (setting [9]), greater than 64.6 µM. In addition, the chromatographic logD in “physchem” (setting [11]) was 4.7.

In “in vitro [1]” (setting [7]), `COc1ccc(C(=O)N2CCOCC2)cc1S(=O)(=O)N(Cc1ccccc1)Cc1ccccc1` [Compound 22] returned a microsomal CLint at 0.5 μM of 810 µL/min/mg. Besides, the IC50 in data set [2] (setting [8]) was 457 nM; in data set [3] (setting [9]), 45.7 µM. Moreover, the chromatographic logD in the data set “physchem” (setting [11]) is 3.8. In addition, the microsomal CLint at 0.5 h, 0.5 µM in the data set “in vitro [4]” (setting [10]) amounted to 2020 µL/min/mg.

`COc1ccc(S(N)(=O)=O)cc1S(=O)(=O)N(Cc1ccccc1)Cc1ccccc1` [Compound 27]: the microsomal CLint at 0.5 h, 0.5 µM in the data set “in vitro [1]” (setting [7]) was determined as 94.1 µL/min/mg; in “in vitro [4]” (setting [10]), 884 µL/min/mg. Besides, the IC50 in data set [2] (setting [8]) is 562 nM; in data set [3] (setting [9]), greater than 64.6 µM. In the data set “physchem” (setting [11]), the chromatographic logD came out at 3.6.

Consider `COc1ccc(OC)c(S(=O)(=O)N(Cc2ccc(F)cc2)Cc2ccnn2C)c1` [Compound 35], for which the microsomal CLint at 0.5 h, 0.5 µM in “in vitro [1]” (setting [12]) is 651 µL/min/mg. The IC50 in data set [2] (setting [8]) was 5250 nM; in data set [3] (setting [9]), 45.7 µM. The same compound had a chromatographic logD in “physchem” (setting [11]) of 3.5. The microsomal CLint at 0.5 μM in the data set “in vitro [4]” (pH 7.4, Microsome Clint,u Mouse, Table 2, intrinsic in vitro clearance, liver microsomes) amounted to 5480 µL/min/mg.

In the case of `COc1ccc(C(N)=O)cc1S(=O)(=O)N(Cc1ccccc1)Cc1ccccc1` [DNDI0003366135], the intrinsic clearance (microsomal CLint) at 0.5 μM is 108 µL/min/mg in the data set “in vitro [1]” (pH 7.4, HLM CLint, human liver microsomes) and 1670 µL/min/mg in the data set “in vitro [4]” (pH 7.4, MLM CLint, mouse liver microsomes). In addition, the IC50 was 7410 nM in data set [2] (setting [13]), 7390 nM in data set [2] (setting [14]), greater than 64 µM in data set [5] and greater than 64 µM in data set [3] (read-out: PMM IC50). This compound displayed a CC50 at 3 days in the data set “in vitro [6]” of 43.2 µM.

As to `COc1ccc(N2CCOCC2)cc1S(=O)(=O)N(Cc1ccc(F)cc1)Cc1ccc(F)cc1` [Compound 25], the microsomal CLint at 0.5 h, 0.5 µM in “in vitro [1]” (setting [7]) was determined as 421 µL/min/mg; in “in vitro [4]” (setting [10]) it was 1400 µL/min/mg. Further, the IC50 in data set [2] (setting [8]) was 324 nM; in data set [3] (setting [9]), greater than 64.6 µM. For the same compound, the chromatographic logD in the data set “physchem” (setting [11]) worked out at 4.2.

Take `CS(=O)(=O)c1ccccc1S(=O)(=O)N(Cc1ccccc1)Cc1ccccc1` [Compound 14]: the microsomal CLint at 0.5 h, 0.5 µM in “in vitro [1]” (setting [7]) came to 417 µL/min/mg; in “in vitro [4]” (setting [10]), 2880 µL/min/mg. The IC50 was 32400 nM in data set [2] (setting [8]) and greater than 64.6 µM in data set [3] (setting [9]). In addition, the chromatographic logD in the data set “physchem” (setting [11]) was determined as 4.

Turning to `O=S1(=O)c2ccccc2OCC(Cc2ccccc2)N1Cc1ccccc1` (centres unmarked) [DNDI0003370081], the IC50 in data set [2] (setting [13]) is 33100 nM; in data set [2] (setting [14]), 33500 nM; in data set [5] it was greater than 64 µM; in data set [3] (read-out: PMM IC50) it was 45.2 µM. Further, in “physchem” (pH 7.4, eLogD, experimental), the chromatographic logD is 5. The compound also showed a CC50 at 3 days in the data set “in vitro [6]” greater than 64 µM.

Compound `COc1ccc(CN2CCOCC2)cc1S(=O)(=O)N(Cc1ccc(F)cc1)Cc1ccc(F)cc1` [Compound 24] yielded a microsomal CLint at 0.5 h, 0.5 µM in the data set “in vitro [1]” (setting [7]) of 49.4 µL/min/mg. Moreover, the IC50 was 525 nM in data set [2] (setting [8]) and greater than 64.6 µM in data set [3] (setting [9]). For the same compound, in the data set “in vitro [4]” (setting [10]), the microsomal CLint at 0.5 μM was 3200 µL/min/mg.

Turning to `COCCN(Cc1ccccc1)S(=O)(=O)c1cc(OC)ccc1OC` [Compound 39], the microsomal CLint at 0.5 μM in the data set “in vitro [1]” (setting [12]) is 253 µL/min/mg. For the same compound, the figures for the IC50 in data set [2] (setting [8]) and in data set [3] (setting [9]) were 2090 nM and greater than 64.6 µM, respectively. In “physchem” (setting [11]), the chromatographic logD was determined as 3.5.

In the data set “in vitro [1]” (setting [7]), `N#Cc1ccccc1S(=O)(=O)N(Cc1ccccc1)Cc1ccccc1` [Compound 13] had a microsomal CLint at 0.5 h, 0.5 µM of 699 µL/min/mg. Further, the IC50 in data set [2] (setting [8]) is 11200 nM; in data set [3] (setting [9]), greater than 64.6 µM. The chromatographic logD in “physchem” (setting [11]) is 4.3.

Regarding `COc1ccc(C#N)cc1S(=O)(=O)N(Cc1ccccc1)Cc1ccccc1` [Compound 17], the intrinsic clearance (microsomal CLint) at 0.5 μM in the data set “in vitro [1]” (setting [7]) was 304 µL/min/mg. The IC50 in data set [2] (setting [8]) is 437 nM; in data set [3] (setting [9]), greater than 64.6 µM. This compound displayed a chromatographic logD in the data set “physchem” (setting [11]) of 4.3.
